Experimental data reported in US10285982B2, “3-(1H-pyrrolo[2,3-B]pyridin-2-yl)-1H-pyrazolo[3,4-C]pyridines and therapeutic uses thereof” (Samumed, LLC, priority 2015, dated 2019).

Columns and labels:
Format in all cases: cell-based
[1] = tested on: Wnt activity (Sp5-Luc reporter, SW480 colon carcinoma cells); assay: Wnt activity screening assay, Sp5-Luc reporter gene in SW480 cells; details: Homo sapiens; for inhibition at 10 µM: given where EC50 >10 μM, read-out: percent inhibition at 10 μM; for EC50: overnight incubation
How it was run: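 Wnt-driven firefly luciferase in SW480 colon carcinoma cells reports pathway activity after overnight compound exposure (10 μM top concentration, 3-fold steps). Signal is normalized to DMSO controls.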

SW480 colon cancer cells = assay: Cell viability assay (CellTiter-Blue); details: Homo sapiens, 96 h, four days; for inhibition at 10 µM: given where EC50 >10 μM, read-out: percent inhibition at 10 μM
How it was run: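 Four-day viability readout in SW480 cells: compound at 0.0045–10 μM (1:3 series), DMSO controls in eight replicates, CellTiter-Blue fluorescence after ~3 h. Values are regression-derived EC50s, or percent inhibition at 10 μM when EC50 exceeds 10 μM.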

[2] = tested on: primary human fibroblasts derived from IPF patients (LL29 cells) treated with TGF-β1; assay: Inhibition of fibrotic process, αSMA staining in TGF-β1 treated LL29 fibroblasts; details: Fibroblast; for EC50: 96 h, % αSMA positive LL29 cells, TGF-β1 20 ng/mL, 4 days; for inhibition at 10 µM: given where EC50 >10 μM, αSMA, LL29 cells, TGF-β1, read-out: percent inhibition at 10 μM
How it was run: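 Potency reflects suppression of TGF-β1-driven αSMA expression in IPF patient fibroblasts over 4 days. Values are EC50s from normalized αSMA-positive cell counts, with % inhibition at 10 μM when EC50 exceeded 10 μM.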

SMILES | EC50 [1] [µM] | EC50 (SW480 colon cancer cells) [µM] | inhibition at 10 µM [1] [%] | inhibition at 10 µM (SW480 colon cancer cells) [%] | EC50 [2] [µM] | inhibition at 10 µM [2] [%]
CCCCC(=O)Nc1cncc(-c2cc3c(-c4cc5c(-c6ccccc6F)ccnc5[nH]4)n[nH]c3cn2)c1 [Compound 75, N-(5-(3-(4-(2-Fluorophenyl)-1H-pyrrolo[2,3-b]pyridin-2-yl)-1H-pyrazolo [3,4-c]pyridin-5-yl)pyridin-3-yl)pentanamide] | 0.542 | 0.242 |  |  | 0.076 | 
O=C(Nc1cncc(-c2cc3c(-c4cc5c(-c6ccccc6F)ccnc5[nH]4)n[nH]c3cn2)c1)C1CCCCC1 [Compound 79, N-(5-(3-(4-(2-Fluorophenyl)-1H-pyrrolo[2,3-b]pyridin-2-yl)-1H-pyrazolo [3,4-c]pyridin-5-yl)pyridin-3-yl)cyclohexanecarboxamide] | 0.359 | 3.49 |  |  | 1.34 | 
CCNCc1cncc(-c2cc3c(-c4cc5c(-c6cccnc6)ccnc5[nH]4)n[nH]c3cn2)c1 [Compound 90, N-((5-(3-(4-(Pyridin-3-yl)-1H-pyrrolo[2,3-b]pyridin-2-yl)-1H-pyrazolo[3,4-c]pyridin-5-yl)pyridin-3-yl)methyl)ethanamine] | 3.2 | > 10 |  | 16 | 1.63 | 
O=C(Nc1cncc(-c2cc3c(-c4cc5c(-c6cccnc6)ccnc5[nH]4)n[nH]c3cn2)c1)c1ccccc1 [Compound 95, N-(5-(3-(4-(Pyridin-3-yl)-1H-pyrrolo[2,3-b]pyridin-2-yl)-1H-pyrazolo[3,4-c]pyridin-5-yl)pyridin-3-yl)benzamide] | > 10 | > 10 | 8.7 | 14.2 | > 10 | 0.8
c1cncc(-c2ccnc3[nH]c(-c4n[nH]c5cnc(-c6cncc(CN7CCCC7)c6)cc45)cc23)c1 [Compound 98, 3-(4-(Pyridin-3-yl)-1H-pyrrolo[2,3-b]pyridin-2-yl)-5-(5-(pyrrolidin-1-ylmethyl)pyridin-3-yl)-1H-pyrazolo[3,4-c]pyridine] | > 10 | > 10 | 25.2 | 11.5 | 8.15 | 
c1cncc(-c2ccnc3[nH]c(-c4n[nH]c5cnc(-c6cncnc6)cc45)cc23)c1 [Compound 111, 3-(4-(Pyridin-3-yl)-1H-pyrrolo[2,3-b]pyridin-2-yl)-5-(pyrimidin-5-yl)-1H-pyrazolo[3,4-c]pyridine] | > 10 | > 10 | 7.8 | 17.3 | > 10 | 1.4
O=C(Nc1cncc(-c2cc3c(-c4cc5c(-c6ccncc6)ccnc5[nH]4)n[nH]c3cn2)c1)C1CCC1 [Compound 133, N-(5-(3-(4-(Pyridin-4-yl)-1H-pyrrolo[2,3-b]pyridin-2-yl)-1H-pyrazolo[3,4-c]pyridin-5-yl)pyridin-3-yl)cyclobutanecarboxamide] | > 10 | > 10 | 1.8 | 3.7 | 2.6 | 

Continued, in another order:

EC50 [1] [µM] | EC50 (SW480 colon cancer cells) [µM] | SMILES | inhibition at 10 µM [1] [%] | inhibition at 10 µM (SW480 colon cancer cells) [%] | EC50 [2] [µM] | inhibition at 10 µM [2] [%]
> 10 | > 10 | CN(C)Cc1cncc(-c2cc3c(-c4cc5c(-c6ccccc6F)ccnc5[nH]4)n[nH]c3cn2)c1 [Compound 69, 1-(5-(3-(4-(2-Fluorophenyl)-1H-pyrrolo[2,3-b]pyridin-2-yl)-1H-pyrazolo [3,4-c]pyridin-5-yl)pyridin-3-yl)-N,N-dimethylmethanamine] | 11.3 | 13.2 | > 10 | 0
> 10 | > 10 | CC(C)(C)C(=O)Nc1cncc(-c2cc3c(-c4cc5c(-c6cccnc6)ccnc5[nH]4)n[nH]c3cn2)c1 [Compound 92, N-(5-(3-(4-(Pyridin-3-yl)-1H-pyrrolo[2,3-b]pyridin-2-yl)-1H-pyrazolo[3,4-c]pyridin-5-yl)pyridin-3-yl)pivalamide] | 3.4 | 14.9 | > 10 | 2.4
> 10 | > 10 | CC(C)Nc1cncc(-c2cc3c(-c4cc5c(-c6cccnc6)ccnc5[nH]4)n[nH]c3cn2)c1 [Compound 96, N-Isopropyl-5-(3-(4-(pyridin-3-yl)-1H-pyrrolo[2,3-b]pyridin-2-yl)-1H-pyrazolo[3,4-c]pyridin-5-yl)pyridin-3-amine] | 30.3 | 20.5 | > 10 | 0
> 10 | > 10 | CCCCC(=O)Nc1cncc(-c2cc3c(-c4cc5c(-c6cccnc6)ccnc5[nH]4)n[nH]c3cn2)c1 [Compound 103, N-(5-(3-(4-(Pyridin-3-yl)-1H-pyrrolo[2,3-b]pyridin-2-yl)-1H-pyrazolo[3,4-c]pyridin-5-yl)pyridin-3-yl)pentanamide] | 7.8 | 7.4 | > 10 | 4.8
> 10 | > 10 | CC(C)CC(=O)Nc1cncc(-c2cc3c(-c4cc5c(-c6ccncc6)ccnc5[nH]4)n[nH]c3cn2)c1 [Compound 114, 3-Methyl-N-(5-(3-(4-(pyridin-4-yl)-1H-pyrrolo[2,3-b]pyridin-2-yl)-1H-pyrazolo[3,4-c]pyridin-5-yl)pyridin-3-yl)butanamide] | 9.6 | 0 | > 10 | 0
> 10 | 8.43 | Cc1ccncc1-c1cc2c(-c3cc4c(-c5ccncc5)ccnc4[nH]3)n[nH]c2cn1 [Compound 117, 5-(4-Methylpyridin-3-yl)-3-(4-(pyridin-4-yl)-1H-pyrrolo[2,3-b]pyridin-2-yl)-1H-pyrazolo[3,4-c]pyridine] | 42.4 |  | 4.43 | 
> 10 | > 10 | O=C(Cc1ccccc1)Nc1cncc(-c2cc3c(-c4cc5c(-c6ccncc6)ccnc5[nH]4)n[nH]c3cn2)c1 [Compound 122, 2-Phenyl-N-(5-(3-(4-(pyridin-4-yl)-1H-pyrrolo[2,3-b]pyridin-2-yl)-1H-pyrazolo[3,4-c]pyridin-5-yl)pyridin-3-yl)acetamide] | 7.9 | 7 | > 10 | 8.1
> 10 | > 10 | CN(C)Cc1cncc(-c2cc3c(-c4cc5c(-c6ccncc6)ccnc5[nH]4)n[nH]c3cn2)c1 [Compound 125, N,N-Dimethyl-1-(5-(3-(4-(pyridin-4-yl)-1H-pyrrolo[2,3-b]pyridin-2-yl)-1H-pyrazolo[3,4-c]pyridin-5-yl)pyridin-3-yl)methanamine] | 12.6 | 3.9 | 5.01 | 
> 10 | > 10 | O=C(Nc1cncc(-c2cc3c(-c4cc5c(-c6ccncc6)ccnc5[nH]4)n[nH]c3cn2)c1)C1CCCCC1 [Compound 135, N-(5-(3-(4-(Pyridin-4-yl)-1H-pyrrolo[2,3-b]pyridin-2-yl)-1H-pyrazolo[3,4-c]pyridin-5-yl)pyridin-3-yl)cyclohexanecarboxamide] | 13 | 10.3 | > 10 | 10.8
